Values quoted from earlier work as cited in paper PMC12979414, “Ascending single-dose study of the safety, pharmacokinetics, and pharmacodynamics of CSTI-500, a novel monoamine triple reuptake inhibitor, first-in-human” (Psychopharmacology, 2025).
Read-outs that look alike come from different tables or passages of the source.

Experiments:
[1] = parameters: method as in Zheng et al. [2015]; details: multiple-ascending-dose study, healthy subjects; ref Zheng et al. [2015]
[2] = parameters: method as in Deest et al. [2021]; details: PWS patients, 6 months, doses as low as 25 mg; ref Deest et al. [2021]
[3] = clinical trials for Parkinson's disease; ref Astrup et al. [2008]
[4] = PET occupancy study in healthy subjects, ref Learned et al. [2012]

CN1Cc2cc(-c3ccc(N)nn3)ccc2[C@H](c2ccc3ccccc3c2)C1 [BMS-820836]
striatal DAT occupancies (DAT; 0.5-2 mg/d, healthy volunteers, ref Zheng et al. [2015]): 14-30%
heart rate [1]: linear dose-related escalation in heart rate
clinical efficacy (0.25-2 mg/d, treatment-resistant MDD, two phase IIb trials, ref Bhagwagar et al. [2015]): no clinical superiority compared to duloxetine or escitalopram treatment
SERT occupancy (SERT; 0.5 mg/d, near steady-state, healthy subjects, ref Zheng et al. [2015]): about 80%

COC[C@@H]1[C@@H](c2ccc(Cl)c(Cl)c2)C[C@@H]2CC[C@H]1N2 [GSK372475]
DAT occupancy (DAT; [4]): 60-80%
efficacy and tolerability (1-2 mg/d, two 10-week phase II trials in MDD patients, ref Learned et al. [2012]): neither efficacious nor well-tolerated
SERT occupancy (SERT; [4]): 55-75%

N[C@@H]1CC[C@@H](c2ccc(Cl)c(Cl)c2)c2ccccc21 [SEP-225289]
DAT occupancies, average values (DAT; single-doses 8-16 mg, healthy volunteers, ref DeLorenzo et al. [2011]): 33-49%
depression symptoms (phase II study in MDD patients, 8 weeks of treatment, ref Sharma et al. [2015]): no reduction of depression symptoms
SERT occupancy (SERT; single-doses 8-16 mg, healthy volunteers, all doses, ref DeLorenzo et al. [2011]): below 20%

CN[C@H]1CC[C@@H](c2ccc(Cl)c(Cl)c2)c2ccccc21 [sertraline]
temper outbursts [2]: significantly reduced the temper outbursts

CCOC[C@@H]1[C@@H](c2ccc(Cl)c(Cl)c2)C[C@@H]2CC[C@H]1N2C [tesofensine]
weight loss as an AE [3]: significant weight loss
